Where two headings read alike, the source gives them in different places. No end group written: not given here.
Legend:
[1] = system: P. aeruginosa PA14 4.18 (pmrB); details: for MIC P. aeruginosa PA14 4.18: supplement CSV
[2] = system: P. aeruginosa PA14 4.13 (phoQ); details: for MIC P. aeruginosa PA14 4.13: supplement CSV
human red blood cells = assay: Hemolysis assay, minimum hemolytic concentration
[3] = system: P. aeruginosa PA14 2P4 (pmrB); assay: microbe, parasite or virus in culture; details: for MIC P. aeruginosa PA14 2P4: supplement CSV
Procedure, shortened: (§1)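 Minimal inhibitory concentrations come from broth microdilution in MH medium, with a top peptide concentration of 64 μg/mL halved serially.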

E. cloacae = assay: microbe, parasite or virus in culture; details: for MIC E. cloacae: supplement CSV
Procedure, shortened: as §1

P. aeruginosa ZEM-1A = assay: microbe, parasite or virus in culture
Procedure, shortened: as §1

P. aeruginosa ZEM9A = assay: microbe, parasite or virus in culture; details: for MIC P. aeruginosa ZEM9A: supplement CSV
Procedure, shortened: as §1

K. pneumoniae OXA-48 = assay: microbe, parasite or virus in culture; details: for MIC K. pneumoniae OXA-48: supplement CSV
Procedure, shortened: as §1

P. aeruginosa PA14 = assay: microbe, parasite or virus in culture; details: for MIC P. aeruginosa PA14: supplement CSV
Procedure, shortened: as §1

S. aureus COL (MRSA) = assay: microbe, parasite or virus in culture; details: for MIC S. aureus COL (MRSA): supplement CSV
Procedure, shortened: (§2)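 Read-out was visible growth after MTT addition, the MIC being the lowest inhibitory peptide concentration. Bacteria grown to log phase in LB were exposed in MH medium to peptide from 64 μg/mL in twofold dilutions for 15-18h at 37°C.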

E. coli W3110 = assay: microbe, parasite or virus in culture; details: for MIC E. coli W3110: supplement CSV
Procedure, shortened: as §2

K. pneumoniae NCTC 418 = assay: microbe, parasite or virus in culture; details: for MIC K. pneumoniae NCTC418: supplement CSV
Procedure, shortened: as §2

P. aeruginosa PAO1 = assay: microbe, parasite or virus in culture; details: for MIC P. aeruginosa PAO1: supplement CSV
Procedure, shortened: as §2

A. baumannii ATCC19606 = assay: microbe, parasite or virus in culture; details: for MIC A. baumannii ATCC19606: supplement CSV
Procedure, shortened: as §2

[4] = polymyxin B resistant strain, 12.5% MHB pH 7.4, 16–20 h at 37 °C
[5] = polymyxin B resistant strain, full MHB pH 7.4, 16–20 h at 37 °C

In the case of “VDKPPYLPRPRPPRRIYNR [sr8Cterm-Onc] (VDKPPYLPRPRPPRRIYNR-NH2; also: residues 12-19 stereorandomized (1:1 L/D mixture))”, the “MIC P. aeruginosa PA14 4.18 (pmrB), 12.5% MHB” value [1, 4] is reported as 8 µg/mL, the “MIC P. aeruginosa PA14 4.18 (pmrB), full MHB” value [1, 5] is reported as 64 µg/mL and the “MIC P. aeruginosa PA14 4.18” value ([1]; 12.5% MH pH 7.4) is reported as 8 µg/mL. For the same sequence, the “MIC P. aeruginosa PA14 4.18” value ([1]; full MH pH 7.4) was 64 µg/mL, the “MIC P. aeruginosa PA14 4.13 (phoQ), 12.5% MHB” value [2, 4] was 8 µg/mL and the “MIC P. aeruginosa PA14 4.13 (phoQ), full MHB” value [2, 5] was 64 µg/mL. The “MIC P. aeruginosa PA14 4.13” value ([2]; 12.5% MH pH 7.4) was 8 µg/mL, the “MIC P. aeruginosa PA14 4.13” value ([2]; full MH pH 7.4) was 64 µg/mL and the “Haemolysis on hRBC, MHC” value (human red blood cells; 2.5% human red blood cells (final) in 10 mM phosphate, 150 mM NaCl, pH 7.4, 25 °C, 4 h, visual inspection) was >1000 µg/mL. For the same sequence, the “MHC human red blood cells” value (human red blood cells; supplement CSV) was >1000 µg/mL, the “MIC P. aeruginosa PA14 2P4 (pmrB), 12.5% MHB” value [3, 4] was 2 µg/mL and the “MIC P. aeruginosa PA14 2P4 (pmrB), full MHB” value [3, 5] was > 64 µg/mL. The “MIC P. aeruginosa PA14 2P4” value ([3]; 12.5% MH pH 7.4) was 2 µg/mL, the “MIC P. aeruginosa PA14 2P4” value ([3]; full MH pH 7.4) was >64 µg/mL and the “MIC E. cloacae, 12.5% MHB” value (E. cloacae; 12.5% MHB pH 7.4, 16–20 h at 37 °C) was 0.5 µg/mL. The “MIC E. cloacae, full MHB” value (E. cloacae; full MHB pH 7.4, 16–20 h at 37 °C) was > 64 µg/mL, the “MIC E. cloacae” value (E. cloacae; 12.5% MH pH 7.4) was 0.5 µg/mL and the “MIC E. cloacae” value (E. cloacae; full MH pH 7.4) was >64 µg/mL. For the same sequence, the “MIC P. aeruginosa ZEM-1A, 12.5% MHB” value (P. aeruginosa ZEM-1A; clinical isolate, 12.5% MHB pH 7.4, 16–20 h at 37 °C, cells marked c: single measurement (in duplicates)) was 4 to 8 µg/mL, the “MIC P. aeruginosa ZEM-1A, full MHB” value (P. aeruginosa ZEM-1A; clinical isolate, full MHB pH 7.4, 16–20 h at 37 °C, cells marked c: single measurement (in duplicates)) was 64 µg/mL and the “MIC P. aeruginosa ZEM-1A” value (P. aeruginosa ZEM-1A; supplement CSV, 12.5% MH pH 7.4) was 4 to 8 µg/mL. The “MIC P. aeruginosa ZEM9A, 12.5% MHB” value (P. aeruginosa ZEM9A; clinical isolate, 12.5% MHB pH 7.4, 16–20 h at 37 °C) was 8 µg/mL, the “MIC P. aeruginosa ZEM9A, full MHB” value (P. aeruginosa ZEM9A; clinical isolate, full MHB pH 7.4, 16–20 h at 37 °C) was > 64 µg/mL and the “MIC P. aeruginosa ZEM9A” value (P. aeruginosa ZEM9A; 12.5% MH pH 7.4) was 8 µg/mL. For the same sequence, the “MIC P. aeruginosa ZEM9A” value (P. aeruginosa ZEM9A; full MH pH 7.4) was >64 µg/mL, the “MIC K. pneumoniae OXA-48, 12.5% MHB” value (K. pneumoniae OXA-48; carbapenem-resistant, 12.5% MHB pH 7.4, 16–20 h at 37 °C) was 16 µg/mL and the “MIC K. pneumoniae OXA-48, full MHB” value (K. pneumoniae OXA-48; carbapenem-resistant, full MHB pH 7.4, 16–20 h at 37 °C) was 32 µg/mL. For the same sequence, the “MIC K. pneumoniae OXA-48” value (K. pneumoniae OXA-48; 12.5% MH pH 7.4) was 16 µg/mL, the “MIC K. pneumoniae OXA-48” value (K. pneumoniae OXA-48; full MH pH 7.4) was 32 µg/mL and the “MIC P. aeruginosa PA14, 12.5% MHB” value (P. aeruginosa PA14; 12.5% MHB pH 7.4, 16–20 h at 37 °C, two different duplicate MIC determinations) was 8 µg/mL. For the same sequence, the “MIC P. aeruginosa PA14, full MHB” value (P. aeruginosa PA14; full MHB pH 7.4, 16–20 h at 37 °C, two different duplicate MIC determinations) was > 64 µg/mL, the “MIC P. aeruginosa PA14” value (P. aeruginosa PA14; 12.5% MH pH 7.4) was 8 µg/mL and the “MIC P. aeruginosa PA14” value (P. aeruginosa PA14; full MH pH 7.4) was >64 µg/mL. The “MIC S. aureus, 12.5% MHB” value (S. aureus COL (MRSA); S. aureus COL (MRSA), 12.5% Müller–Hinton medium, 16–20 h at 37 °C) was > 16 µg/mL, the “MIC S. aureus, Full MHB” value (S. aureus COL (MRSA); S. aureus COL (MRSA), full Müller–Hinton medium, 16–20 h at 37 °C) was > 64 µg/mL and the “MIC S. aureus COL (MRSA)” value (S. aureus COL (MRSA); 12.5% MH pH 7.4) was >16 µg/mL. The “MIC S. aureus COL (MRSA)” value (S. aureus COL (MRSA); full MH pH 7.4) was >64 µg/mL, the “MIC E. coli, 12.5% MHB” value (E. coli W3110; E. coli W3110, 12.5% Müller–Hinton medium, 16–20 h at 37 °C, broth microdilution) was 4 µg/mL and the “MIC E. coli, Full MHB” value (E. coli W3110; E. coli W3110, full Müller–Hinton medium, 16–20 h at 37 °C, broth microdilution) was 8 µg/mL. The “MIC E. coli W3110” value (E. coli W3110; 12.5% MH pH 7.4) was 4 µg/mL, the “MIC E. coli W3110” value (E. coli W3110; full MH pH 7.4) was 8 µg/mL and the “MIC K. pneumoniae, 12.5% MHB” value (K. pneumoniae NCTC 418; K. pneumoniae NCTC 418, 12.5% Müller–Hinton medium, 16–20 h at 37 °C) was 2 µg/mL. The “MIC K. pneumoniae, Full MHB” value (K. pneumoniae NCTC 418; K. pneumoniae NCTC 418, full Müller–Hinton medium, 16–20 h at 37 °C) was 4 µg/mL, the “MIC K. pneumoniae NCTC418” value (K. pneumoniae NCTC 418; 12.5% MH pH 7.4) was 2 µg/mL and the “MIC K. pneumoniae NCTC418” value (K. pneumoniae NCTC 418; full MH pH 7.4) was 4 µg/mL. For the same sequence, the “MIC P. aeruginosa, 12.5% MHB” value (P. aeruginosa PAO1; P. aeruginosa PAO1, 12.5% Müller–Hinton medium, 16–20 h at 37 °C) was 8 µg/mL, the “MIC P. aeruginosa, Full MHB” value (P. aeruginosa PAO1; P. aeruginosa PAO1, full Müller–Hinton medium, 16–20 h at 37 °C) was 64 µg/mL and the “MIC P. aeruginosa PAO1” value (P. aeruginosa PAO1; 12.5% MH pH 7.4) was 8 µg/mL. For the same sequence, the “MIC P. aeruginosa PAO1” value (P. aeruginosa PAO1; full MH pH 7.4) was 64 µg/mL, the “MIC A. baumannii, 12.5% MHB” value (A. baumannii ATCC19606; A. baumannii ATCC19606, 12.5% Müller–Hinton medium, 16–20 h at 37 °C) was 4 µg/mL and the “MIC A. baumannii, Full MHB” value (A. baumannii ATCC19606; A. baumannii ATCC19606, full Müller–Hinton medium, 16–20 h at 37 °C) was 32 µg/mL. The “MIC A. baumannii ATCC19606” value (A. baumannii ATCC19606; 12.5% MH pH 7.4) was 4 µg/mL and the “MIC A. baumannii ATCC19606” value (A. baumannii ATCC19606; full MH pH 7.4) was 32 µg/mL.

Source: article PMC11571207, “Stereorandomized Oncocins with Preserved Ribosome Binding and Antibacterial Activity” (Journal of Medicinal Chemistry, 2024)
